Experimental data: ChEMBL document CHEMBL3526102, “Biotransformation of two β-secretase inhibitors including ring opening and contraction of a pyrimidine ring” (Drug Metab Dispos, 2013)

Columns and labels:
[1] = test system: Hepatocyte; assay: Drug level in human hepatocytes treated with [14C]-AZD3839 at 5 uM after 120 mins by LC-MS analysis; assay type: ADME, cell-based; conditions: 2 h
[2] = test system: Hepatocyte; assay: Drug level in Sprague-Dawley rat hepatocytes treated with [14C]-AZD3839 at 5 uM after 120 mins by LC-MS analysis; assay type: ADME, cell-based; conditions: 2 h
[3] = test system: Plasma; assay: Drug level in bile duct-cannulated Sprague-Dawley rat plasma treated with (S)-1-pyridin-4-yl-4-fluoro-1-(3-(pyrimidin-5-yl)phenyl)-1H-isoindol-3-amine at 30 umol/kg, iv after 6 hrs by LC-MS analysis; assay type: ADME, organism-based; conditions: in vivo
[4] = test system: Liver microsome; assay: Drug level in Sprague-Dawley rat liver microsomes treated with (S)-1-pyridin-4-yl-4-fluoro-1-(3-(pyrimidin-5-yl)phenyl)-1H-isoindol-3-amine at 1 uM after 30 mins by LC-MS analysis; assay type: ADME; conditions: 0.5 h
[5] = biological target: Cytochrome P450 3A4 (Homo sapiens, UniProt P08684); assay: Activity of human recombinant CYP3A4 expressed in insect BTI-TN-5B1-4 cell microsomes assessed as enzyme-mediated drug metabolism treated with (S)-1-pyridin-4-yl-4-fluoro-1-(3-(pyrimidin-5-yl)phenyl)-1H-isoindol-3-amine at 2 uM after 30 mins; assay type: ADME; conditions: bti-tn-5b1-4, 0.5 h
[6] = test system: Liver microsome; assay: Drug level in human liver microsomes treated with (S)-1-pyridin-4-yl-4-fluoro-1-(3-(pyrimidin-5-yl)phenyl)-1H-isoindol-3-amine at 1 uM after 30 mins by LC-MS analysis; assay type: ADME; conditions: 0.5 h
[7] = test system: Liver; assay: Drug level in Sprague-Dawley rat aroclor 1254-induced liver S9 fraction treated with AZD3839 at 100 uM by LC-MS analysis; assay type: ADME, subcellular; conditions: s9, 100 µM
[8] = test system: Liver microsome; assay: Drug level in human liver microsomes treated with AZD3839 at 1 uM after 30 mins by LC-MS analysis; assay type: ADME; conditions: 0.5 h
[9] = test system: Liver microsome; assay: Drug level in Sprague-Dawley rat liver microsomes treated with AZD3839 at 1 uM after 30 mins by LC-MS analysis; assay type: ADME; conditions: 0.5 h
[10] = test system: Hepatocyte; assay: Drug level in New Zealand White rabbit hepatocytes treated with [14C]-AZD3839 at 5 uM after 120 mins by LC-MS analysis; assay type: ADME, cell-based, Oryctolagus cuniculus; conditions: 2 h
[11] = Drug level in Sprague-Dawley rat bile treated with [14C]-AZD3839 at 58 umol/kg, po after 48 hrs by LC-MS analysis; assay type: ADME, organism-based; conditions: in vivo
[12] = Drug metabolism in human hepatocytes assessed as 5-(3-(3-amino-1-(2-(difluoromethyl)-1-oxidopyridin-4-yl)-4-fluoro-1H-isoindol-1-yl)phenyl)pyrimidine 1-oxide formation at 5 uM after 120 mins by LC-MS analysis; assay type: ADME, cell-based, Hepatocyte; conditions: 2 h
[13] = Drug metabolism in Sprague-Dawley rat bile assessed as (2S,3S,4S,5R,6S)-6-(5-(3-(3-amino-1-(2-(difluoromethyl)pyridin-4-yl)-4-fluoro-1H-isoindol-1-yl)phenyl)-1H-imidazol-1-yloxy)-3,4,5-trihydroxytetrahydro-2H-pyran-2-carboxylic acid formation at 58 umol/kg, po after 48 hrs by LC-MS analysis; assay type: ADME, organism-based; conditions: in vivo
[14] = Drug metabolism in human hepatocytes assessed as (S)-4-(3-amino-4-fluoro-1-(3-(pyrimidin-5-yl)phenyl)-1H-isoindol-1-yl)-2-(difluoromethyl)pyridine 1-oxide formation at 5 uM after 120 mins by LC-MS analysis; assay type: ADME, cell-based, Hepatocyte; conditions: 2 h
[15] = Drug metabolism in Sprague-Dawley rat hepatocytes assessed as 5-(3-(3-amino-1-(2-(difluoromethyl)-1-oxidopyridin-4-yl)-4-fluoro-1H-isoindol-1-yl)phenyl)pyrimidine 1-oxide formation at 5 uM after 120 mins by LC-MS analysis; assay type: ADME, cell-based, Hepatocyte; conditions: 2 h
[16] = Drug excretion in Han Wistar rat urine at 5.8 umol/kg, iv by LC-MS analysis; assay type: ADME, organism-based; conditions: read-out: Drug excretion
[17] = Drug metabolism in Sprague-Dawley rat hepatocytes assessed as (2S,3S,4S,5R,6S)-6-(5-(3-(3-amino-1-(2-(difluoromethyl)pyridin-4-yl)-4-fluoro-1H-isoindol-1-yl)phenyl)-1H-imidazol-1-yloxy)-3,4,5-trihydroxytetrahydro-2H-pyran-2-carboxylic acid formation at 5 uM after 120 mins by LC-MS analysis; assay type: ADME, cell-based, Hepatocyte
[18] = Drug metabolism in human hepatocytes assessed as 1-(3-(3-amino-1-(2-(difluoromethyl)pyridin-4-yl)-4-fluoro-1H-isoindol-1-yl)phenyl)ethane-1,2-diol formation at 5 uM after 120 mins by LC-MS analysis; assay type: ADME, cell-based, Hepatocyte; conditions: 2 h
[19] = Drug metabolism in Sprague-Dawley rat hepatocytes assessed as (S)-4-(3-amino-4-fluoro-1-(3-(pyrimidin-5-yl)phenyl)-1H-isoindol-1-yl)-2-(difluoromethyl)pyridine 1-oxide formation at 5 uM after 120 mins by LC-MS analysis; assay type: ADME, cell-based, Hepatocyte; conditions: 2 h
[20] = Drug metabolism in Sprague-Dawley rat bile assessed as 5-(3-(3-amino-1-(2-(difluoromethyl)pyridin-4-yl)-4-fluoro-1H-isoindol-1-yl)phenyl)-1H-imidazol-1-ol formation at 58 umol/kg, po after 48 hrs by LC-MS analysis; assay type: ADME, organism-based; conditions: in vivo
[21] = Drug metabolism in New Zealand White rabbit hepatocytes assessed as (S)-5-(3-(3-amino-1-(2-(difluoromethyl)pyridin-4-yl)-4-fluoro-1H-isoindol-1-yl)phenyl)pyrimidine 1-oxide formation at 5 uM after 120 mins by LC-MS analysis; assay type: ADME, cell-based, Oryctolagus cuniculus, Hepatocyte; conditions: 2 h
[22] = Drug metabolism in New Zealand White rabbit hepatocytes assessed as 1-(3-(3-amino-1-(2-(difluoromethyl)pyridin-4-yl)-4-fluoro-1H-isoindol-1-yl)phenyl)ethane-1,2-diol formation at 5 uM after 120 mins by LC-MS analysis; assay type: ADME, cell-based, Oryctolagus cuniculus, Hepatocyte; conditions: 2 h
[23] = Drug metabolism in human hepatocytes assessed as (S)-5-(3-(3-amino-1-(2-(difluoromethyl)pyridin-4-yl)-4-fluoro-1H-isoindol-1-yl)phenyl)pyrimidine 1-oxide formation at 5 uM after 120 mins by LC-MS analysis; assay type: ADME, cell-based, Hepatocyte; conditions: 2 h
[24] = Drug metabolism in Sprague-Dawley rat hepatocytes assessed as 5-(3-(3-amino-1-(2-(difluoromethyl)pyridin-4-yl)-4-fluoro-1H-isoindol-1-yl)phenyl)pyrimidin-4-ol formation at 5 uM after 120 mins by LC-MS analysis; assay type: ADME, cell-based, Hepatocyte; conditions: 2 h
[25] = Drug metabolism in human hepatocytes assessed as 5-(3-(3-amino-1-(2-(difluoromethyl)pyridin-4-yl)-4-fluoro-1H-isoindol-1-yl)phenyl)pyrimidin-4(3H)-one formation at 5 uM after 120 mins by LC-MS analysis; assay type: ADME, cell-based, Hepatocyte; conditions: 2 h
[26] = Drug metabolism in Sprague-Dawley rat hepatocytes assessed as (S)-5-(3-(3-amino-1-(2-(difluoromethyl)pyridin-4-yl)-4-fluoro-1H-isoindol-1-yl)phenyl)pyrimidine 1-oxide formation at 5 uM after 120 mins by LC-MS analysis; assay type: ADME, cell-based, Hepatocyte; conditions: 2 h
[27] = Drug excretion in Han Wistar rat feces at 5.8 umol/kg, iv by LC-MS analysis; assay type: ADME, organism-based; conditions: faeces, read-out: Drug excretion
[28] = Drug metabolism in human hepatocytes assessed as 5-(3-(3-amino-1-(2-(difluoromethyl)pyridin-4-yl)-4-fluoro-1H-isoindol-1-yl)phenyl)pyrimidin-4-ol formation at 5 uM after 120 mins by LC-MS analysis; assay type: ADME, cell-based, Hepatocyte; conditions: 2 h
[29] = Drug metabolism in Sprague-Dawley rat aroclor 1254-induced liver S9 fraction assessed as 5-(3-(3-amino-1-(2-(difluoromethyl)pyridin-4-yl)-4-fluoro-1H-isoindol-1-yl)phenyl)pyrimidin-4(3H)-one formation at 100 uM by LC-MS analysis; assay type: ADME, subcellular; conditions: s9, 100 µM
[30] = Drug metabolism in Sprague-Dawley rat aroclor 1254-induced liver S9 fraction assessed as (S)-5-(3-(3-amino-1-(2-(difluoromethyl)pyridin-4-yl)-4-fluoro-1H-isoindol-1-yl)phenyl)pyrimidine 1-oxide formation at 100 uM by LC-MS analysis; assay type: ADME, subcellular; conditions: s9, 100 µM
[31] = test system: Liver microsome; assay: Drug metabolism in Sprague-Dawley rat liver microsomes assessed as (S)-5-(3-(3-amino-1-(2-(difluoromethyl)pyridin-4-yl)-4-fluoro-1H-isoindol-1-yl)phenyl)pyrimidine 1-oxide formation at 1 uM after 30 mins by LC-MS analysis; assay type: ADME; conditions: 0.5 h
[32] = test system: Liver microsome; assay: Drug metabolism in human liver microsomes assessed as (S)-4-(3-amino-4-fluoro-1-(3-(pyrimidin-5-yl)phenyl)-1H-isoindol-1-yl)-2-(difluoromethyl)pyridine 1-oxide formation at 1 uM after 30 mins by LC-MS analysis; assay type: ADME; conditions: 0.5 h
[33] = test system: Liver microsome; assay: Drug metabolism in Sprague-Dawley rat liver microsomes assessed as (S)-4-(3-amino-4-fluoro-1-(3-(pyrimidin-5-yl)phenyl)-1H-isoindol-1-yl)-2-(difluoromethyl)pyridine 1-oxide formation at 1 uM after 30 mins by LC-MS analysis; assay type: ADME; conditions: 0.5 h
[34] = test system: Liver microsome; assay: Drug metabolism in human liver microsomes assessed as (S)-5-(3-(3-amino-1-(2-(difluoromethyl)pyridin-4-yl)-4-fluoro-1H-isoindol-1-yl)phenyl)pyrimidine 1-oxide formation at 1 uM after 30 mins by LC-MS analysis; assay type: ADME; conditions: 0.5 h
[35] = Drug metabolism in Sprague-Dawley rat aroclor 1254-induced liver S9 fraction assessed as (S)-4-(3-amino-4-fluoro-1-(3-(pyrimidin-5-yl)phenyl)-1H-isoindol-1-yl)-2-(difluoromethyl)pyridine 1-oxide formation at 100 uM by LC-MS analysis; assay type: ADME, subcellular; conditions: s9, 100 µM
[36] = Drug excretion in bile duct-cannulated Sprague-Dawley rat bile at 30 umol/kg, iv after 6 hrs by LC-MS analysis; assay type: ADME, organism-based; conditions: read-out: Drug excretion
[37] = Drug excretion in Sprague-Dawley rat urine at 30 umol/kg, iv after 24 hrs by LC-MS analysis; assay type: ADME, organism-based; conditions: read-out: Drug excretion
[38] = Drug excretion in Sprague-Dawley rat feces at 30 umol/kg, iv after 48 hrs by LC-MS analysis; assay type: ADME, organism-based; conditions: faeces, read-out: Drug excretion

Sequence of Cytochrome P450 3A4 (P08684 whole entry): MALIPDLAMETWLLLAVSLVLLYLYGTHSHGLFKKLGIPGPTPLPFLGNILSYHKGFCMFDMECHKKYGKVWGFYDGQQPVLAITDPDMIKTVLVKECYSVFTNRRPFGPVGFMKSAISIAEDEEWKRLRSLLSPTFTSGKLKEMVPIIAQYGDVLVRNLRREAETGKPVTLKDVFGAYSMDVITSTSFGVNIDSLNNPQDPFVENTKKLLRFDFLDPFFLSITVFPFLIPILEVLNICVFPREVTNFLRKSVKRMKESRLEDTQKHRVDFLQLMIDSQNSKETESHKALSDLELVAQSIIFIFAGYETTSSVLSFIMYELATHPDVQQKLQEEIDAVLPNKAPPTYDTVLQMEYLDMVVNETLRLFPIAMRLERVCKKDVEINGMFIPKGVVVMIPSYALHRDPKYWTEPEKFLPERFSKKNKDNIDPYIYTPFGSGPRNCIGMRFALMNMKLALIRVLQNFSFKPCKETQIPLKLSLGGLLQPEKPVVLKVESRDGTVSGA

NC1=NC(c2cccc(-c3cnc[n+]([O-])c3)c2)(c2cc[n+]([O-])c(C(F)F)c2)c2cccc(F)c21 (stereo not given)
Drug metabolism [1]: metabolite_detected
Drug metabolism [2]: metabolite_detected

NC1=NC(c2cc[n+]([O-])cc2)(c2cccc(-c3cncnc3)c2)c2cccc(F)c21 (stereo not given)
Drug metabolism [3]: metabolite_detected
Drug metabolism [4]: metabolite_detected
Drug metabolism [5]: metabolite_detected
Drug metabolism [6]: metabolite_detected

NC1=N[C@@](c2cccc(-c3cnc[n+]([O-])c3)c2)(c2ccnc(C(F)F)c2)c2cccc(F)c21
Drug metabolism [7]: metabolite_detected
Drug metabolism [1]: metabolite_detected
Drug metabolism [8]: metabolite_detected
Drug metabolism [9]: metabolite_detected
Drug metabolism [10]: metabolite_detected
Drug metabolism [2]: metabolite_detected

NC1=N[C@@](c2cccc(-c3cncnc3)c2)(c2cc[n+]([O-])c(C(F)F)c2)c2cccc(F)c21
Drug metabolism [7]: metabolite_detected
Drug metabolism [1]: metabolite_detected
Drug metabolism [8]: metabolite_detected
Drug metabolism [9]: metabolite_detected
Drug metabolism [2]: metabolite_detected

NC1=NC(c2cccc(-c3cncn3O)c2)(c2ccnc(C(F)F)c2)c2cccc(F)c21 (stereo not given)
Drug metabolism [11]: metabolite_detected

NC1=NC(c2cccc(C(O)CO)c2)(c2ccnc(C(F)F)c2)c2cccc(F)c21 (stereo not given)
Drug metabolism [1]: metabolite_detected
Drug metabolism [10]: metabolite_detected

NC1=NC(c2cccc(-c3cncn3O[C@@H]3O[C@H](C(=O)O)[C@@H](O)[C@H](O)[C@H]3O)c2)(c2ccnc(C(F)F)c2)c2cccc(F)c21 (stereo not given in full)
Drug metabolism [11]: metabolite_detected
Drug metabolism [2]: metabolite_detected

NC1=N[C@](c2ccnc(C(F)F)c2)([14c]2[14cH][14cH][14cH][14c](-c3cncnc3)[14cH]2)c2cccc(F)c21.O=C(O)/C=C/C(=O)O
Drug metabolism [12]: metabolite_detected
Drug metabolism [13]: metabolite_detected
Drug metabolism [14]: metabolite_detected
Drug metabolism [15]: metabolite_detected
dose excreted [16]: < 1%
Drug metabolism [17]: metabolite_detected
Drug metabolism [18]: metabolite_detected
Drug metabolism [19]: metabolite_detected
Drug metabolism [20]: metabolite_detected
Drug metabolism [21]: metabolite_detected
Drug metabolism [22]: metabolite_detected
Drug metabolism [23]: metabolite_detected
Drug metabolism [24]: metabolite_detected
Drug metabolism [25]: metabolite_detected
Drug metabolism [26]: metabolite_detected
dose excreted [27]: > 90%
Drug metabolism [28]: metabolite_detected

NC1=NC(c2cc[n+]([O-])cc2)(c2cccc(-c3cnc[n+]([O-])c3)c2)c2cccc(F)c21 (stereo not given)
Drug metabolism [3]: metabolite_detected

NC1=N[C@@](c2cccc(-c3cncnc3)c2)(c2ccnc(C(F)F)c2)c2cccc(F)c21.O=C(O)/C=C/C(=O)O
Drug metabolism [29]: metabolite_detected
Drug metabolism [30]: metabolite_detected
Drug metabolism [31]: metabolite_detected
Drug metabolism [32]: metabolite_detected
Drug metabolism [33]: metabolite_detected
Drug metabolism [34]: metabolite_detected
Drug metabolism [35]: metabolite_detected

[3H]c1cc(-c2c([3H])nc([3H])nc2[3H])cc([C@@]2(c3cc([3H])nc([3H])c3)N=C(N)c3c(F)cccc32)c1
dose excreted at 6 h [36]: 55%
dose excreted at 24 h [37]: < 10%
dose excreted at 48 h [38]: > 90%
